In general, ED50 refers to the dose at which the effect has come halfway, by size or by number of responders. Broadly, the LD50 is the dose at which mortality reaches 50%.

A short description of data set [1]: in vivo. Set-up: species or system male rats of Donryu strain. To be noted: rat, po, Concentration of 5-fluorouracil in blood. From the text:
Ascites cells (5×10^6) of AH-130 are subcutaneously transplanted in the armpit portion of male rats of Donryu strain weighing about 200 g. Seven days thereafter, the rats with cancer cells weighing at least 2 g are used, five rats in each group.
Two, four and eight hours after the administration, the blood serum and cancer tissue homogenate are collected, each of which is acidified with hydrochloric acid and extracted with chloroform. The resulting aqueous layer is examined for antibiotic activity according to the thin-cup method (Media Circle, Vol. 92, p. 259, 1967) with use of Staphylococcus aureus 209P strain.

The test system of a further data set is sarcoma 180. The experiment in a line: Therapeutic effect on sarcoma 180 transplanted in mice (Table 5). The conditions noted are these: oral, 14400 min. The class given is in vivo, male mice of ICR strain. The procedure:
(§1) (5) The anti-cancer compositions of this invention are tested in mice by the following methods to determine acute toxicity, therapeutic effect and theapeutic index.
Tissues of sarcoma 180, 2×10^6, are subcutaneously transplanted in the back of male mice of ICR strain (6 mice in each group). […] Twenty-four hours after the transplantation and during the following seven consecutive days the suspension is orally given to the animal once every day.

Data set [2] relates to AH-130. The experiment in a line: Effects of Preparations 1 to 8 on AH-130 (Table 4). It is filed as in vivo, male Donryu rats. The conditions noted are these: I.v.; Compd. 1 10 mg/kg, formulated as Preparation 6 but no uracil. From the text: (§2) Ascites cells (5×10^6) of AH-130, are subcutaneously transplanted in the armpit of male Donryu rats weighing about 200 g (ten rats in each group). […] Twenty-four hours after the transplantation and during the following seven consecutive days the suspension is orally given to the animal once every day at the dose listed in Table 2. On the 10th day after the transplantation, the tumor is removed from the body and weighed to calculate the average weight (T) of the tumors in the group to which the composition has been given and the corresponding weight (C) in the control group to determine the ratio T/C.
(4) Compositions formulated according to Preparations 1 to 8 given above are tested by the foregoing method for effects on AH-130.

For data set [3] the following is noted: background; cited from earlier work.
Data set [4] concerns AH-130. The experiment in a line: Anti-cancer effect (T/C) on subcutaneously transplanted AH-130, oral administration (Table 2). The class given is in vivo, male Donryu rats. The conditions noted are these: for Anti-cancer effect (T/C): oral.
Text: (2) Determination of effects
as §2

Data set [5] is described as follows: in vivo. The class given is in vivo. The conditions noted are these: mouse, in vivo, po, mice, uracil (b)/(a) mol ratio 10, as amount of 5-fluorouracil (a). The procedure:
as §1
(§3) Male mice of ICR strain weighing 22±1 g are used, 5 mice in each group. […] Over the following period of three weeks the mice are checked every day for poisoning, body weight and mortality. The LD50 is determined according to the up-and-down method 3 weeks after the administration.

A further data set relates to mice. The experiment in a line: in vivo. The class given is in vivo. The conditions noted are these: oral, 30240 min. On the procedure: as §1, §3
[6] abbreviates: uracil (b)/(a) mol ratio 0, as amount of 5-fluorouracil (a).
Setting [7] is: uracil (b)/(a) mol ratio 2.5, as amount of 5-fluorouracil (a).

In the data set “in vivo [1]”, `O=c1[nH]cc(F)c(=O)[nH]1` [Compound 1, 5-Fluorouracil] gave a concentration at 4 h of 20 ng/mL. Besides, the ED50 stood at 18.5 mg/kg with sarcoma 180 (setting [6]); 8.5 mg/kg in the data set with sarcoma 180 (setting [7]); 6.0 mg/kg in the data set with sarcoma 180 (uracil (b)/(a) mol ratio 10, as amount of 5-fluorouracil (a)). In addition, the “Anti-cancer effect (control) (T/C)” value with AH-130 [2] stood at 0.66. Besides, the “toxicity and side effects” value in data set [3] was “high toxicity and marked side effects”. Moreover, in the data set with AH-130 [4] (Rattus norvegicus, po, 240 h, read-out: Anti-cancer effect (T/C)), the response vs control in vivo at 80 µmol/kg amounted to 69%. Moreover, the entries for the “Anti-cancer effect (T/C)” value with AH-130 [4] (5-fluorouracil (a) 0.08 m.mol/kg + uracil 0.08 m.mol/kg) and in the data set on AH-130 [4] (5-fluorouracil (a) 0.08 m.mol/kg + uracil 0.16 m.mol/kg) were 0.59 and 0.32, respectively. Moreover, in the data set “in vivo [5]”, the LD50 at 504 h came out at 97 mg/kg. The LD50 in the data set on mice (setting [6]) and in the data set with mice (setting [7]) was 115 mg/kg in each case.

These data come from patent US4481203A, “Composition containing 1-(n-hexylcarbamoyl)-5-fluorouracil and uracil” (priority 1977, dated 1984).
